Assay [1] has as its system urethral pressure. Briefly: Effect of test compound on urethral pressure in anesthetized rats. It counts as in vivo, rat. Particulars: urethane-anesthetized SD female rats. The source says: Test Example 3 Test to Evaluate Effect of Test Compound on Urethral Pressure
It has been reported that an increase in the urethra pressure is useful for the treatment of urinary incontinence, particularly stress urinary incontinence (for example, Drugs, 64, 14, 1503-1516 (2004)). In order to confirm whether the compound of the present invention increases the urethra pressure and thus is useful for the treatment of urinary incontinence, particularly stress urinary incontinence, the following tests were carried out.
SD female rats were anesthetized with urethane and subjected to laparotomy. Then, the bladder apex was incised and a catheter was inserted from the bladder apex. Further, the catheter tip was ligated and fixed to be located in the proximal urethra portion. The catheter was connected to a pressure transducer and an infusion pump. Further, a catheter for administrating the compound was fitted into the femoral vein. Physiological saline was continuously infused into the urethra and the perfusion pressure in the urethra was measured. After the urethral pressure was stabilized, the test compound that had been dissolved in physiological saline, or physiological saline including 5% dimethylacetamide and 0.5% Cremophor was administered intravenously at 0.1 mg/kg, and a change in urethral pressures was measured.
Further, the results of administering an active metabolite of midodrine (ST-1059: purchased from CHEMIZON) (J. Urology, 118, 980-982 (1977)) which is an α1 adrenoceptor agonist and has an effect on stress urinary incontinence in rat doses (0.01 mg/kg) presumed to correspond to the clinical doses are referenced and shown in the Tables below. The increment value in the urethra pressures of ramelteon and the Example compounds of the present invention at the time of administration are shown in Table 4. Ex represents Example No. of the test compound.

In assay [2] the test system is isolated urethra. Briefly: Isolated urethra contractile action. Further details: species or system rat. Particulars: test compound at 1 μM; contractile response by 10 μM phenylephrine as 100%; SD female rat urethra; read-out: Isolated urethra contraction (%). The procedure: Test Example 2 Isolated Urethra Contractile Action
(1) Evaluation Test on Urethra Contractile Action of Test Compound Using Isolated Urethra
The urethra was isolated from an SD female rat having a body weight of 100 to 500 g. The isolated urethra was incised longitudinally to give a rectangular strip specimen having a width of about 3 mm, which was suspended in the circular muscle direction in 10 mL of a tissue bath filled with a Krebs-Henseleit solution (pH 7.4). The Krebs-Henseleit solution was bubbled with 95% O2 and 5% CO2, and kept at 37° C. The resting tension was set to 0.5 g to record the isometric contraction. After the resting tension was stabilized, contraction was elicited by the addition of 10 μM phenylephrine. After washing and stabilizing, the test compound was added cumulatively to a final concentration of −12 to −5 log M to measure a contractile response. By taking the contractile response by 10 μM phenylephrine as 100%, the ratio of the contractile response in the concentration of the test compound at 1 μM was calculated.
(§1) Ex represents Example No. of the test compound.

In assay [3] the target is T1, human MT2 receptor (Homo sapiens, UniProt P49286).
T1 sequence (P49286 1-362): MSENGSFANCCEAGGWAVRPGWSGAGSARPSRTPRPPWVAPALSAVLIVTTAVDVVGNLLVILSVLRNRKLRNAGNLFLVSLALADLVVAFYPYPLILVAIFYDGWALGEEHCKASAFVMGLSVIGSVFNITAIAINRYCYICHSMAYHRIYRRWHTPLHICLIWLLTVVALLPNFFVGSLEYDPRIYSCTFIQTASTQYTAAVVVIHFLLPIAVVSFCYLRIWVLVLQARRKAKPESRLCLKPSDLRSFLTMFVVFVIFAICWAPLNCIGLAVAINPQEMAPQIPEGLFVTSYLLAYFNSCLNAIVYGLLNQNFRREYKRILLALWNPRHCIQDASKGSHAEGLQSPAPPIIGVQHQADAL
Briefly: Activation of human MT2 receptor in receptor-expressing HEK293 cells (intracellular Ca2+, FLIPR). It counts as cell-based. The conditions noted are these: for Emax: HEK293, maximum reaction by ramelteon taken as 100%, solvent only 0%; for EC50: HEK293 cells stably expressing human MT2 and Gq/i chimeric G-protein, intracellular Ca2+ by FLIPR. As to the method: (§2) (1) Isolation of Human MT1 and MT2 Receptor and Construction of Expression Vector
(§3) A human MT1 receptor gene (GenBank Accession No.: NM_005958.3) and a human MT2 receptor gene (GenBank Accession No.: NM_005959.3) were each introduced into an expression vector pCDNA3.1/Zeo (Invitrogen, Inc.).
(§4) (2) Construction of Cells Stably Expressing Human MT1 and Human MT2 Receptor
(§5) The introduction was carried out according to the attached instructions, using a Lipofectoamine (registered trademark) 2000 Reagent (Invitrogen, Inc.). Zeocin and hygromycin were used as a resistant drug, and the cell was incubated for 15 days at 0.02 mg/mL and 0.05 mg/mL, respectively, thereby acquiring drug-resistant clones.
(§6) (3) Measurement of Intracellular Ca^2+ Concentration by FLIPR (Registered Trademark)
(§7) The respective stably expressing cells were dispensed into 96-well poly-D-lysine-coated plates (Falcon Co.) to 40,000 cells/well the day before the experiment, and incubated overnight in a DMEM (Invitrogen, Inc.) medium including 10% FBS at 37° C. and 5% CO2. The medium was replaced with a loading buffer (washing solution (Hank's balanced salt solution (HBSS), 20 mM HEPES-NaOH, 2.5 mM probenecid) including Fluo-4AM (Dojindo Co.) at 4 μM), and incubated for 1 hour at 37° C. and 5% CO2. Thereafter, the cells were washed with a plate washer (ELx405, BIO-TEK Instrument, Inc.) set with the washing solution, and set in an intracellular Ca^2+ concentration measuring systems (FLIPR (registered trademark), Molecular Device Co.). The test compound was dissolved in the washing solution in advance, diluted to a final concentration of −12 to −5 log M, set in a FLIPR (registered trademark) device together with the cells, and added to the cells in the device. At this time, a change in the intracellular Ca^2+ concentrations was measured.
as §1

Assay [4] has as its target human MT1 receptor (Homo sapiens, UniProt P48039). Put plainly: Activation of human MT1 receptor in receptor-expressing HEK293 cells (intracellular Ca2+, FLIPR). It counts as cell-based. Particulars: for EC50: HEK293 cells stably expressing human MT1 and Gq/i chimeric G-protein, intracellular Ca2+ by FLIPR. As to the method: as §2, §3, §4, §5, §6, §7, §1
For assay [5], the system named is isolated urethra. Put plainly: Test confirming that urethra contractile action by ramelteon is through MT1 and/or MT2 receptor (Luzindole). Also on record: species or system rat. The conditions noted are these: for Second contractile rate by ramelteon (%): 20 minutes before ramelteon 1 μM, first contraction as 100%. The procedure: (2) Test for Confirming that Urethra Contractile Action is Action Through MT1 and/or MT2 Receptor
The urethra was isolated from an SD female rat having a body weight of 100 to 500 g. The isolated urethra was incised longitudinally to give a rectangular strip specimen having a width of about 3 mm, which was suspended in the muscle parallel to the circular to 10 mL of a tissue bath filled with a Krebs-Henseleit solution (pH 7.4). […] The resting tension was set to 0.5 g to record the isometric contraction. After the resting tension was stabilized, contraction was elicited by the addition of 10 μM phenylephrine. After washing and stabilizing, the test compound (ramelteon) at 1 μM was added to measure a contractile response. After washing and stabilizing, a solvent or Luzindole (purchased from Wako Pure Chemical Industries, Ltd.) (0.1 μM, 1 μM, or 10 μM) was added to the same specimen, and after 20 minutes, ramelteon at 1 μM was added again thereto to measure a contractile reaction. When the first contraction by ramelteon at 1 μM was taken as 100%, the second contractile rate by ramelteon was measured.

[6] abbreviates: HEK293, maximum reaction by ramelteon taken as 100%, solvent only 0%, read-out: MT1 Emax (%).

The structures appear in SMILES notation. Like-named read-outs stand apart in the source and are kept apart here.

Sequence of human MT1 receptor (P48039 whole entry): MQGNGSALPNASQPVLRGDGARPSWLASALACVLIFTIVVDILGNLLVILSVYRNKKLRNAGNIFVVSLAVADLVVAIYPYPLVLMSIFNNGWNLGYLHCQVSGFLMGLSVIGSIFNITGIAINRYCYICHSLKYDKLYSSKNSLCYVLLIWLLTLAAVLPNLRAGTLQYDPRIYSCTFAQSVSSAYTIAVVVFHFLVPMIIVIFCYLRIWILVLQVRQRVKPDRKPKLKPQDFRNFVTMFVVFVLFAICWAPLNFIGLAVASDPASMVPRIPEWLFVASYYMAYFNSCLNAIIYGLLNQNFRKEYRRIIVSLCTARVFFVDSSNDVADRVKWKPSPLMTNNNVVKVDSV

As for `CCC(=O)NCCc1c(C(=O)NC)[nH]c2cc(F)c(OC)cc12` [Ex 36], the “Increment value in the urethra pressures (mmHg)” value (“Increment value” for short) in assay [1] (0.1 mg/kg intravenously) is given as 7.3 ± 0.2 mmHg. In addition, the activation at 1 µM in assay [2] worked out at 107%. For the same compound, the results for the maximum response (Emax) in assay [3] and in assay [4] (setting [6]) were 104% and 121%, respectively. Besides, the values for the EC50 in assay [3] and in assay [4] were 18 nM and 10 nM, respectively.
`CNC(=O)c1[nH]c2c(F)cc(OC)cc2c1CCNC(=O)C(F)F` [Ex 53]: the “Increment value” value in assay [1] (0.1 mg/kg intravenously) turned out to be 10.5 ± 0.6 mmHg. Also, the maximal effect (Emax) – broadly, the size of the effect at its maximum, as opposed to the concentration needed – was 105% in assay [3] and 103% in assay [4] (setting [6]). In addition, the values for the EC50 in assay [3] and in assay [4] were 9.2 nM and 19 nM, respectively.
In the case of `COc1ccc2[nH]cc(CCNC(C)=O)c2c1` [Melatonin, melatonin, reference compound], the Emax in assay [4] (HEK293, read-out: MT1 Emax (%)) was 94%.
On to `CNC(=O)c1[nH]c2ccc(OC)nc2c1CCNC(=O)C(F)F` [Ex 48], for which the “Increment value” value in assay [1] (0.1 mg/kg intravenously) is reported as 7.3 ± 0.7 mmHg. Besides, the Emax in assay [3] amounted to 109%; in assay [4] (setting [6]) it was 122%. Moreover, the EC50 (as a rule, the midpoint of the concentration-response curve) stood at 43 nM in assay [3] and 12 nM in assay [4].
As for `CCCC(=O)NCCc1c(C(=O)NC)[nH]c2ccc(OC)cc12` [Ex 32], the “Increment value” value in assay [1] (0.1 mg/kg intravenously) was found to be 10.8 ± 2.9 mmHg. The activation at 1 µM in assay [2] amounted to 143%. Further, the Emax in assay [3] came to 111%; in assay [4] (setting [6]), 106%. The concentration for a half-maximal effect (EC50) was 31 nM in assay [3] and 7.7 nM in assay [4].
On to `CNC(=O)c1[nH]c2cc(Cl)c(OC)cc2c1CCNC(C)=O` [Ex 12, 3-(2-acetamidoethyl)-6-chloro-5-methoxy-N-methyl-1H-indole-2-carboxamide], for which the maximum response (Emax) was 70% in assay [3] and 68% in assay [4] (setting [6]). In addition, the concentration for a half-maximal effect (EC50) was determined as 12 nM in assay [3] and 86 nM in assay [4].
With `CC(=O)NCCc1c(Cc2ccccc2)[nH]c2ccccc12` [Luzindole], the “Second contractile rate by ramelteon (%)” value in assay [5] (Luzindole 0.1 μM) came out at 88 ± 11%; in assay [5] (Luzindole 1 μM), 75 ± 5%; in assay [5] (Luzindole 10 μM), 61 ± 9%. Besides, the “inhibition of isolated urethra contractile action by ramelteon” value in assay [5] (treatment with Luzindole 0.1-10 μM, in words) is “inhibited in a concentration-dependent manner”.
Consider `CCCC(=O)NCCc1c(C(=O)NC)[nH]c2cc(F)c(OC)cc12` [Ex 35], for which the “Increment value” value in assay [1] (0.1 mg/kg intravenously) was 8.2 ± 1.6 mmHg. For the same compound, in assay [2], the activation at 1 µM is 171%. Further, the figures for the maximal effect (Emax) in assay [3] and in assay [4] (setting [6]) were 102% and 110%, respectively. Also, the concentration giving a half-maximal response (EC50) in assay [3] was 11 nM; in assay [4] it was 3.2 nM.
Consider `COc1ccc(OC)c(C(O)CN)c1` (stereo not drawn) [ST-1059, reference compound], for which the “Increment value” value in assay [1] (0.01 mg/kg (rat dose presumed to correspond to clinical dose)) came to 4.9 ± 1.1 mmHg.
`CCCC(=O)NCCc1c(C(=O)NC)[nH]c2cc(Cl)c(OC)cc12` [Ex 34, 3-[2-(butyrylamino)ethyl]-6-chloro-5-methoxy-N-methyl-1H-indole-2-carboxamide]: the maximal effect (Emax) came to 92% in assay [3] and 75% in assay [4] (setting [6]). Besides, the values for the EC50 in assay [3] and in assay [4] were 4.4 nM and 32 nM, respectively.

(Values after patent US9376449B2, “Indole carboxamide derivative” (Astellas Pharma Inc., priority 2012, dated 2016).)
